Laboratory results as given in the supplement of paper PMC10307832.

Legend:
Assay in all cases: relative viability (nuclei count vs DMSO), 5 days (fraction); higher = more cells survive
Mirin + Phenformin = compound: N=C1NC(=O)/C(=C/c2ccc(O)cc2)S1 [Mirin] + N=C(N)NC(=N)NCCc1ccccc1 [Phenformin] (partner 250 µM)
Procedure, shortened: (§1)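 Medians of duplicate plates are given as relative viability. That measure is the nuclei count in treated wells divided by the count in vehicle wells. Counts were taken on 4× images of lung cancer cell lines in 1536-well plates, 5 days after pin-tool dosing the day after seeding with one drug alone or a fixed anchor-drug dose plus five library-drug doses (not always all listed) in √10 steps.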

[1] = compound: CCC1=CN=CN=C1N2CCN(CC2)CC3=NC4=C(N3)C=C(C=C4)C(F)(F)F + COc1cccc2cc(-c3nc([C@H]4CC[C@H](C(=O)O)CC4)n4ncnc(N)c34)[nH]c12 [OSI-027] (partner 0.5 µM)
Procedure, shortened: as §1

Mirin + OSI-027 = compound: N=C1NC(=O)/C(=C/c2ccc(O)cc2)S1 [Mirin] + COc1cccc2cc(-c3nc([C@H]4CC[C@H](C(=O)O)CC4)n4ncnc(N)c34)[nH]c12 [OSI-027] (partner 0.5 µM)
Procedure, shortened: as §1

[2] = compound: CCn1c(-c2nonc2N)nc2cnc(Oc3cccc(NC(=O)c4ccc(OCCN5CCOCC5)cc4)c3)cc21 + NC(=O)Nc1cc(-c2cccc(F)c2)sc1C(=O)N[C@H]1CCCNC1 [AZD7762] (partner 0.2 µM)
Procedure, shortened: as §1

Cell Line	relative viability (Mirin + Phenformin; first compound 0.25 µM)	relative viability (Mirin + Phenformin; first compound 0.7906 µM)	relative viability (Mirin + Phenformin; first compound 2.5 µM)	relative viability (Mirin + Phenformin; first compound 7.906 µM)	relative viability (Mirin + Phenformin; first compound 25 µM)	relative viability ([1]; first compound 0.04 µM)	relative viability ([1]; first compound 0.1265 µM)	relative viability ([1]; first compound 0.4 µM)	relative viability ([1]; first compound 1.265 µM)	relative viability ([1]; first compound 4 µM)	relative viability (Mirin + OSI-027; first compound 0.25 µM)	relative viability (Mirin + OSI-027; first compound 0.7906 µM)	relative viability (Mirin + OSI-027; first compound 2.5 µM)	relative viability (Mirin + OSI-027; first compound 7.906 µM)	relative viability (Mirin + OSI-027; first compound 25 µM)	relative viability ([2]; first compound 0.04 µM)	relative viability ([2]; first compound 0.1265 µM)	relative viability ([2]; first compound 0.4 µM)	relative viability ([2]; first compound 1.265 µM)	relative viability ([2]; first compound 4 µM)
NCI-H838	0.654	0.292	0.634	0.626	0.468	0.443	0.438	0.403	0.313	0.354	0.394	0.394	0.414	0.374	0.406	0.946	0.725	0.669	0.635	0.691
LCLC-97TM1	0.445	0.515	0.439	0.36	0.53	0.477	0.582	0.452	0.506	0.577	0.455	0.263	0.341	0.291	0.292	0.273	0.425	–	–	0.135
BEN	0.255	0.288	0.266	0.248	0.273	0.299	0.276	0.317	0.223	0.256	0.288	0.306	0.273	0.286	0.192	0.683	0.532	0.388	0.385	0.468
LC-2-ad	0.624	0.498	0.589	0.47	0.416	0.826	0.908	0.913	0.69	0.791	0.851	0.776	0.822	0.567	0.492	0.882	0.79	0.57	0.368	0.281
ABC-1	0.263	0.21	0.269	0.257	0.206	0.492	0.416	0.351	0.507	0.555	0.442	0.346	0.484	0.467	0.225	0.96	0.663	0.445	0.402	0.625
NCI-H650	0.436	0.384	0.453	–	0.546	0.444	0.427	0.555	0.543	0.511	0.478	0.628	0.523	–	0.58	1.15	0.871	0.46	0.263	0.354
NCI-H1755	0.617	0.595	0.683	0.63	0.678	0.712	0.691	0.717	0.458	0.663	0.686	0.75	0.662	0.687	0.766	0.437	0.4	0.291	0.243	0.31
EPLC-272H	0.354	–	0.307	0.254	0.234	0.255	0.302	0.264	0.308	0.276	0.339	–	0.241	0.213	0.224	0.211	0.199	0.153	0.128	0.0806
NCI-H1437	0.31	0.333	0.318	0.3	0.309	0.857	0.847	0.777	0.667	0.749	0.853	0.895	0.948	0.832	0.643	1.13	1.08	0.718	0.625	0.642
EKVX	0.251	0.238	0.246	0.224	0.258	0.615	0.73	0.705	–	0.717	0.691	0.672	0.761	0.591	0.67	0.927	0.718	0.478	0.476	0.621
NCI-H1651	0.332	0.34	0.324	0.336	0.319	0.805	0.795	0.641	0.757	0.788	0.782	0.701	0.877	0.549	0.662	0.566	0.477	0.373	0.146	0.282
HCC-15	0.495	0.478	0.446	0.431	0.426	0.622	0.651	0.621	0.563	0.599	0.81	0.557	0.614	0.585	0.466	1.3	1.51	0.974	1.05	0.987
LCLC-103H	0.342	0.345	0.324	0.387	0.358	0.48	0.492	0.4	0.456	0.457	0.444	0.495	0.515	0.509	0.442	0.837	0.743	0.422	0.397	0.404
NCI-H2347	0.334	0.328	0.52	0.453	0.552	0.471	0.446	0.374	0.262	0.406	0.459	0.426	0.4	0.476	0.36	0.951	0.766	0.641	0.378	0.413
NCI-H1792	0.351	0.369	0.306	0.245	0.264	0.89	0.684	0.698	0.668	0.547	0.724	0.746	0.745	–	0.634	0.541	0.37	0.15	0.106	0.11
NCI-H647	0.613	0.455	0.521	0.542	0.36	0.671	0.855	0.557	0.413	0.462	0.759	0.688	0.572	0.645	0.503	0.523	0.242	0.249	0.193	0.121
